Data reported in patent US20190055283A1, “AZA-PEPTIDE ALDEHYDES AND KETONES” (OHIO STATE INNOVATION FOUNDATION, priority 2016, published 2019).

Assays:
Type in all cases: biochemical
legumain = test: Legumain inhibition kinetic assay
Procedure: (§1) Generally, for the 20S proteasome the enzymatic hydrolysis of fluorogenic substrate Suc-LLVY-AMC by the 20S proteasome is monitored continuously for chymotrypsin-like (CT-L) activity at λexc=360, λem=460 nm for 45 min at 30° C. under standard assay conditions (Assay buffer: pH 7.5, 20 mM Tris, 0.02% w/v SDS, 1 mM EDTA, 2% v/v DMSO). Caspase activities are measured in 100 mM HEPES, 10% sucrose, 0.1% CHAPS, 10 mM DTT, pH 7.5 and 25° C.^21 Legumain activity is measured in 0.1 M citrate-phosphate buffer at pH 6.8 containing 4 mM DTT with Cbz-AAN-AMC as the substrate^9b. Activity of the MALT1 active fragment (aa325-769) is detected by cleavage of the tetra-peptide substrate LRSR-AMC (7-amino-4-methylcoumarin) that results in fluorescence emission when AMC is released. IC50 values are determined for the new compounds by dose-dependent inhibition. In parallel, well-characterized MALT1 inhibitors (e.g. Z—VRPR-FMIK, mepazine, MI-2) are used as reference compounds. Cathepsin B activity is performed in 0.1 M phosphate, 1.25 mM EDTA, 0.01% Brij, pH 6.0. Papain activity is measured in 10 mM DTT, 50 mM phosphate, pH 6.2. Trypsin activity is performed in 0.046 M Tris/HCl buffer at pH 8.1 with 0.0115 M CaCl2.
(§2) Results from kinetic assays for compounds tested against the 20S proteasome, caspase-3, and legumain are shown in Table 4, Table 5, and Table 6, respectively.

caspase-3 = molecular target: T1, caspase-3 (Homo sapiens, UniProt P42574); test: Caspase 3 inhibition kinetic assay
T1 construct: Professor Guy Salvesen, Burnham Institute (gift, not a purchase)
T1 sequence (P42574 29-175 limits assumed): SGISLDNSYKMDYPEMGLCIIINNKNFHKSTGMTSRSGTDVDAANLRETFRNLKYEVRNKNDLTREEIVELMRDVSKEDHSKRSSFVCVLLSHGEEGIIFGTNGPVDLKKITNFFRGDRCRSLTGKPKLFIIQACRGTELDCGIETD
Procedure: as §1, §2

human 20S proteasome = molecular target: T2, human 20S proteasome (Homo sapiens, UniProt P20618+P28074); test: Kinetic assay of 20S proteasome chymotryptic activity (Suc-LLVY-AMC); details: Suc-LLVY-AMC substrate, pH 7.8, 37° C., competitive inhibition model
T2 construct: purchased
Procedure: Kinetic assays were performed on a fluorescent 96-well plate reader with human 20S proteasome. Chymotryptic activity was measured in 20 mM HEPES, 0.5 mM EDTA, 0.037% SDS, pH 7.8 at 37° C., using 0-100 μM Suc-LLVY-AMC as the fluorogenic substrate, and […] 4.42×10^−4 mg/100 μL enzyme.
Triplicates of velocities (fluorescence vs time) were obtained at various concentrations of substrate ([…]) and aza-peptide inhibitor (0, 25, 50, 100 μM) then converted to specific activity using Lambert-Beer's law and enzyme concentration.
Enzyme specific activities were fit to a competitive inhibition model using GraphPad Prism software for nonlinear fitting.

Compound	Ki (human 20S proteasome) [µM]	other results
C[C@H](NC(=O)OCc1ccccc1)C(=O)N[C@@H](C)C(=O)NN(CC(N)=O)C(=O)C(=O)Cc1ccccc1 [Z-Ala-Ala-AAsn-COBn, Benzyl((S)-1-(((S)-1-(2-(2-amino-2-oxoethyl)-2-(2-oxo-3-phenylpropanoyl) hydrazinyl)-1-oxopropan-2-yl)amino)-1-oxopropan-2-yl)carbamate]	–	Ki (μM) (legumain): Weak
CC(=O)C(=O)N(CC(N)=O)NC(=O)[C@H](C)NC(=O)[C@H](C)NC(=O)OCc1ccccc1 [Z-Ala-Ala-AAsn-COMe, Benzyl ((S)-1-(((S)-1-(2-(2-amino-2-oxoethyl)-2-(2-oxopropanoyl)hydrazinyl)-1-oxopropan-2-yl)amino)-1-oxopropan-2-yl)carbamate]	–	Ki (μM) (legumain): Weak
CCOC(=O)C(=O)N(CC(N)=O)NC(=O)[C@H](C)NC(=O)[C@H](C)NC(=O)OCc1ccccc1 [Z-Ala-Ala-AAsn-COOEt, Ethyl 2-(1-(2-amino-2-oxoethyl)-2-(((benzyloxy)carbonyl)-L-alanyl-L-alanyl)hydrazinyl)-2-oxoacetate]	–	Ki (μM) (legumain): Weak
CC(=O)C(=O)N(CC(=O)O)NC(=O)[C@@H](NC(=O)[C@H](CCC(=O)O)NC(=O)[C@H](CC(=O)O)NC(=O)OCc1ccccc1)C(C)C [Z-Asp-Glu-Val-AAsp-COMe, (5S,8S,11S)-8-(2-carboxyethyl)-5-(carboxymethyl)-11-isopropyl-3,6,9,12-tetraoxo-14-(2-oxopropanoyl)-1-phenyl-2-oxa-4,7,10,13,14-pentaazahexadecan-16-oic acid]	–	IC50 (caspase-3): 55 nM
CC(C)[C@H](NC(=O)[C@H](CCC(=O)O)NC(=O)[C@H](CC(=O)O)NC(=O)OCc1ccccc1)C(=O)N[C@H](C=O)CC(=O)O [Z-Asp-Glu-Val-Asp-COH, reference compound]	–	IC50 (caspase-3): 4.5 nM
CC(C)C[C@H](NC(=O)OCc1ccccc1)C(=O)N[C@@H](CC(C)C)C(=O)NN(C)C(=O)C=O [Z-Leu-Leu-AAla-COH, Benzyl ((S)-4-methyl-1-(((S)-4-methyl-1-(2-methyl-2-(2-oxoacetyl)hydrazinyl)-1-oxopentan-2-yl)amino)-1-oxopentan-2-yl)carbamate]	44	–
CC(=O)C(=O)N(C)NC(=O)[C@H](CC(C)C)NC(=O)[C@H](CC(C)C)NC(=O)OCc1ccccc1 [Z-Leu-Leu-AAla-COMe, Benzyl ((S)-4-methyl-1-(((S)-4-methyl-1-(2-methyl-2-(2-oxopropanoyl)hydrazinyl)-1-oxopentan-2-yl)amino)-1-oxopentan-2-yl)carbamate]	73	–
CC(C)C[C@H](NC(=O)OCc1ccccc1)C(=O)N[C@@H](CC(C)C)C(=O)NNC(=O)C=O [Z-Leu-Leu-AGly-COH, Benzyl ((S)-4-methyl-1-(((S)-4-methyl-1-oxo-1-(2-(2-oxoacetyl)hydrazinyl)pentan-2-yl)amino)-1-oxopentan-2-yl)carbamate]	35	–
CC(=O)C(=O)NNC(=O)[C@H](CC(C)C)NC(=O)[C@H](CC(C)C)NC(=O)OCc1ccccc1 [Z-Leu-Leu-AGly-COMe, Benzyl((S)-4-methyl-1-(((S)-4-methyl-1-oxo-1-(2-(2-oxopropanoyl)hydrazinyl)pentan-2-yl)amino)-1-oxopentan-2-yl)carbamate]	29	–
CC(C)C[C@H](NC(=O)OCc1ccccc1)C(=O)N[C@@H](CC(C)C)C(=O)NN(CC(C)C)C(=O)C(=O)Cc1ccccc1 [Z-Leu-Leu-ALeu-COBn, Benzyl ((S)-1-(((S)-1-(2-isobutyl-2-(2-oxo-3-phenylpropanoyl)hydrazinyl)-4-methyl-1-oxopentan-2-yl)amino)-4-methyl-1-oxopentan-2-yl)carbamate]	81	–
CC(C)C[C@H](NC(=O)OCc1ccccc1)C(=O)N[C@@H](CC(C)C)C(=O)NN(CC(C)C)C(=O)C=O [Z-Leu-Leu-ALeu-COH, Benzyl ((S)-1-(((S)-1-(2-isobutyl-2-(2-oxoacetyl)hydrazinyl)-4-methyl-1-oxopentan-2-yl)amino)-4-methyl-1-oxopentan-2-yl)carbamate]	24	–
CC(=O)C(=O)N(CC(C)C)NC(=O)[C@H](CC(C)C)NC(=O)[C@H](CC(C)C)NC(=O)OCc1ccccc1 [Z-Leu-Leu-ALeu-COMe, Benzyl((S)-1-(((S)-1-(2-isobutyl-2-(2-oxopropanoyl)hydrazinyl)-4-methyl-1-oxopentan-2-yl)amino)-4-methyl-1-oxopentan-2-yl)carbamate]	27	–
CCOC(=O)C(=O)N(CC(C)C)NC(=O)[C@H](CC(C)C)NC(=O)[C@H](CC(C)C)NC(=O)OCc1ccccc1 [Z-Leu-Leu-ALeu-COOEt, Ethyl 2-(2-(((benzyloxy)carbonyl)-L-leucyl-L-leucyl)-1-isobutylhydrazinyl)-2-oxoacetate]	–	Ki (μM) (human 20S proteasome): weak
CC(C)C[C@H](NC(=O)OCc1ccccc1)C(=O)N[C@@H](Cc1ccccc1)C(=O)NN(CC(C)C)C(=O)C(=O)Cc1ccccc1 [Z-Leu-Phe-ALeu-COBn, Benzyl ((S)-1-(((S)-1-(2-isobutyl-2-(2-oxo-3-phenylpropanoyl)hydrazinyl)-1-oxo-3-phenylpropan-2-yl)amino)-4-methyl-1-oxopentan-2-yl)carbamate]	55	–
CC(=O)C(=O)N(CC(C)C)NC(=O)[C@H](Cc1ccccc1)NC(=O)[C@H](CC(C)C)NC(=O)OCc1ccccc1 [Z-Leu-Phe-ALeu-COMe, Benzyl((S)-1-(((S)-1-(2-isobutyl-2-(2-oxopropanoyl)hydrazinyl)-1-oxo-3-phenylpropan-2-yl)amino)-4-methyl-1-oxopentan-2-yl)carbamate]	47	–
